Nine compounds from ChEMBL document CHEMBL1681742, “Novel second generation analogs of eribulin. Part I: Compounds containing a lipophilic C32 side chain overcome P-glycoprotein susceptibility” (Bioorg Med Chem Lett, 2011) can be followed below.

The structures appear in SMILES notation. Active and inactive are the calls of the source. No cut-off for these calls is given here.

For data set [1], the system named is LOX. Description: Antitumor activity against human LOX cells xenografted in athymic mouse assessed as inhibition of tumor growth at 0.1 mg/kg, iv qd administered 5 days a week for 2 weeks measured up to 2 weeks. It is filed as functional, organism-based. Details: dose 0.1 mg/kg.
The nature of data set [2]: Cytotoxicity against human IMR90 cells up to 1 uM. It is filed as cell-based. As to conditions: imr-90.
The nature of data set [3]: Antiproliferative activity against human MES-SA cells assessed as growth inhibition. It is filed as functional, cell-based.
Data set [4] deals with HCT-15. Description: Antiproliferative activity against human HCT15 cells assessed as growth inhibition. It is filed as functional, cell-based.
Data set [5] in a line: Fold resistance, ratio of IC50 for antiproliferative activity for P-gp overexpressing human MES-SA/Dx5-Rx1cells to IC50 for antiproliferative activity for human MES-SA cells.
Data set [6] relates to DLD-1. Description: Antiproliferative activity against human DLD1 cells assessed as growth inhibition. It is filed as functional, cell-based.
The nature of data set [7]: Antiproliferative activity against P-gp overexpressing human MES-SA/Dx5-Rx1 cells assessed as growth inhibition. It is filed as functional.
For data set [8], the system named is Mus musculus. Description: Toxicity in athymic mouse xenografted with human LOX cells assessed as body weight loss at 0.1 mg/kg, iv qd administered 5 days a week for 2 weeks. It is filed as organism-based. More on the design: dose 0.1 mg/kg, route intravenous. Conditions: in vivo.
Data set [9] deals with Mus musculus. Description: Toxicity in athymic mouse xenografted with human LOX cells assessed as reduction in water uptake at 0.1 mg/kg, iv qd administered 5 days a week for 2 weeks. It is filed as organism-based. As to conditions: in vivo. Details: dose 0.1 mg/kg, route intravenous. On the technique in general: In xenograft studies the graft and the host belong to different species.

Data set [10] concerns LOX. Briefly: Antitumor activity against human LOX cells xenografted in athymic mouse assessed as inhibition of tumor growth at 0.1 mg/kg, iv qd administered 5 days a week for 2 weeks measured after 2 weeks. It is filed as functional, organism-based. More on the design: dose 0.1 mg/kg.

In general, IC50 refers to the concentration at which inhibition is half-maximal. For the compound `C=C1C[C@@H]2CC[C@@]34C[C@H]5O[C@H]6[C@@H](O3)[C@H]3O[C@H](CC[C@@H]3O[C@H]6[C@H]5O4)CC(=O)C[C@@H]3[C@@H](OC)[C@@H](C[C@H](O)CN)O[C@H]3C[C@H]3O[C@@H](CC[C@@H]1O2)C[C@@H](C)C3=C` [ERIBULIN], in data set [1], the outcome was Active. Also, the Activity entry in data set [2] is reported as “Non-toxic”. Moreover, the IC50 in [3] worked out at 1.66 nM; in data set [4], 204 nM; in data set [6] it was 20 nM; in [7], 3060 nM. For the same compound, the “Ratio IC50” value in data set [5] is on record as 1842.

With `C=C1C[C@@H]2CC[C@@]34C[C@H]5O[C@H]6[C@@H](O3)[C@H]3O[C@H](CC[C@@H]3O[C@H]6[C@H]5O4)CC(=O)C[C@@H]3[C@@H](OC)[C@@H](C[C@@H](COC)OC)O[C@H]3C[C@H]3O[C@@H](CC[C@@H]1O2)C[C@@H](C)C3=C`, the Activity entry in data set [8], in data set [2] and in [9] was “Non-toxic” each time. For the same compound, the result in data set [1] was Active. The IC50 was found to be 0.24 nM in data set [3], 0.21 nM in data set [4], 0.36 nM in data set [6] and 1.86 nM in [7]. Moreover, the “Ratio IC50” value in data set [5] worked out at 7.76. For the same compound, the outcome in [10] was inactive.

Take `C=C1C[C@@H]2CC[C@@]34C[C@H]5O[C@H]6[C@@H](O3)[C@H]3O[C@H](CC[C@@H]3O[C@H]6[C@H]5O4)CC(=O)C[C@@H]3[C@@H](OC)[C@@H](CC(=O)COC)O[C@H]3C[C@H]3O[C@@H](CC[C@@H]1O2)C[C@@H](C)C3=C`: the Activity result in data set [2] is “Non-toxic”. In addition, the IC50 in data set [3] came to 0.44 nM; in [4] it was 0.62 nM; in data set [6], 0.67 nM; in [7], 2.92 nM. Also, the “Ratio IC50” value in [5] was 6.7.

For the compound `C=C1C[C@@H]2CC[C@@]34C[C@H]5O[C@H]6[C@@H](O3)[C@H]3O[C@H](CC[C@@H]3O[C@H]6[C@H]5O4)CC(=O)C[C@@H]3[C@@H](OC)[C@@H](CC(=O)OCC)O[C@H]3C[C@H]3O[C@@H](CC[C@@H]1O2)C[C@@H](C)C3=C`, the Activity result in data set [2] is listed as “Non-toxic”. Besides, the IC50 worked out at 0.37 nM in [3], 0.4 nM in data set [4], 0.45 nM in data set [6] and 1.17 nM in data set [7]. Besides, in [5], the “Ratio IC50” value was found to be 3.21.

As for `C=C1C[C@@H]2CC[C@@]34C[C@H]5O[C@H]6[C@@H](O3)[C@H]3O[C@H](CC[C@@H]3O[C@H]6[C@H]5O4)CC(=O)C[C@@H]3[C@@H](OC)[C@@H](C[C@H](O)COC)O[C@H]3C[C@H]3O[C@@H](CC[C@@H]1O2)C[C@@H](C)C3=C`, the Activity result in data set [8], in [2] and in [9] was “Non-toxic” in each case. Further, in [1], the result was Active. For the same compound, the IC50 was 0.17 nM in [3], 0.2 nM in data set [4], 0.27 nM in [6] and 2.82 nM in data set [7]. Besides, in data set [5], the “Ratio IC50” value is on record as 17.09. Moreover, in data set [10], the result was inactive.

With `C=C1C[C@@H]2CC[C@@]34C[C@H]5O[C@H]6[C@@H](O3)[C@H]3O[C@H](CC[C@@H]3O[C@H]6[C@H]5O4)CC(=O)C[C@@H]3[C@@H](OC)[C@@H](CCC#N)O[C@H]3C[C@H]3O[C@@H](CC[C@@H]1O2)C[C@@H](C)C3=C`, in data set [2], the Activity result is listed as “Non-toxic”. The IC50 is 0.75 nM in [3], 0.68 nM in [4], 1.43 nM in data set [6] and 2.91 nM in [7]. The “Ratio IC50” value in data set [5] is recorded as 3.88.

For `C=C1C[C@@H]2CC[C@@]34C[C@H]5O[C@H]6[C@@H](O3)[C@H]3O[C@H](CC[C@@H]3O[C@H]6[C@H]5O4)CC(=O)C[C@@H]3[C@@H](OC)[C@@H](CC(=O)OC)O[C@H]3C[C@H]3O[C@@H](CC[C@@H]1O2)C[C@@H](C)C3=C`, the Activity entry in data set [2] was “Non-toxic”. Also, the IC50 in data set [3] stood at 0.35 nM; in data set [4] it was 0.44 nM; in [6], 0.83 nM; in data set [7], 1.48 nM. Besides, the “Ratio IC50” value in data set [5] was 4.23.

Turning to `C=C1C[C@@H]2CC[C@@]34C[C@H]5O[C@H]6[C@@H](O3)[C@H]3O[C@H](CC[C@@H]3O[C@H]6[C@H]5O4)CC(=O)C[C@@H]3[C@@H](OC)[C@@H](C[C@@H](COCC)OCC)O[C@H]3C[C@H]3O[C@@H](CC[C@@H]1O2)C[C@@H](C)C3=C`, the Activity result in data set [2] is listed as “Non-toxic”. Moreover, the IC50 came out at 0.54 nM in data set [3], 0.55 nM in data set [4], 0.8 nM in [6] and 2.38 nM in [7]. For the same compound, the “Ratio IC50” value in [5] is listed as 4.4.

Regarding `C#CC[C@H]1O[C@H]2C[C@H]3O[C@@H](CC[C@@H]4O[C@@H](CC[C@@]56C[C@H]7O[C@H]8[C@@H](O5)[C@H]5O[C@H](CC[C@@H]5O[C@H]8[C@H]7O6)CC(=O)C[C@@H]2[C@H]1OC)CC4=C)C[C@@H](C)C3=C`, the Activity entry in data set [2] is recorded as “Non-toxic”. In addition, the IC50 in [3] is 0.73 nM; in [4], 0.83 nM; in [6], 1.46 nM; in [7], 2.01 nM. Besides, the “Ratio IC50” value in [5] is reported as 2.75.
